We go through 21 compounds from patent publication US20220227707A1, “COMPOUNDS AND COMPOSITIONS FOR TREATING CONDITIONS ASSOCIATED WITH NLRP ACTIVITY” (Novartis AG, priority 2019, published 2022).

pIC50: −log10 of the molar value. Bounds are passed on as bounds.

For orientation: pIC50 means the negative decadic logarithm of the IC50, by convention in mol/L. Read a low pIC50 as a large IC50.

The first assay relates to IL-1β production in PMA-differentiated THP-1 cells. Description: IL-1β production in PMA-differentiated THP-1 cells stimulated with gramicidin (hTHP-1 assay). The class given is cell-based, human. The following applies: Average IC50, hTHP-1 assay containing 2% fetal bovine serum; Table 10, class symbols. As for the experimental part:
Procedure 1: IL-1β Production in PMA-Differentiated THP-1 Cells Stimulated with Gramicidin
THP-1 cells were purchased from the American Type Culture Collection and sub-cultured according to instructions from the supplier. Cells were cultured in complete RPMI 1640 (containing 10% heat inactivated FBS, penicillin (100 units/ml) and streptomycin (100 μg/ml)), and maintained in log phase prior to experimental setup. Prior to the experiment, compounds were dissolved in dimethyl sulfoxide (DMSO) to generate a 30 mM stock. The compound stock was first pre-diluted in DMSO to 3, 0.34, 0.042 and 0.0083 mM intermediate concentrations and subsequently spotted using Echo550 liquid handler into an empty 384-well assay plate to achieve desired final concentration (e.g. 100, 33, 11, 3.7, 1.2, 0.41, 0.14, 0.046, 0.015, 0.0051, 0.0017 μM). DMSO was backfilled in the plate to achieve a final DMSO assay concentration of 0.37%. The plate was then sealed and stored at room temperature until required.
THP-1 cells were treated with PMA (Phorbol 12-myristate 13-acetate) (20 ng/ml) for 16-18 hours. On the day of the experiment the media was removed and adherent cells were detached with trypsin for 5 minutes. Cells were then harvested, washed with complete RPMI 1640, spun down, and resuspended in RPMI 1640 (containing 2% heat inactivated FBS, penicillin (100 units/ml) and streptomycin (100 μg/ml). The cells were plated in the 384-well assay plate containing the spotted compounds at a density of 50,000 cells/well (final assay volume 50 μl). Cells were incubated with compounds for 1 hour and then stimulated with gramicidin (5 μM) (Enzo) for 2 hours. Plates were then centrifuged at 340 g for 5 min. Cell free supernatant ([…]) was collected using a 96-channel PlateMaster (Gilson) and the production of IL-1β was evaluated by HTRF (cisbio). The plates were incubated for 18 h at 4° C. and read using the preset HTRF program (donor emission at 620 nm, acceptor emission at 668 nm) of the SpectraMax i3x spectrophotometer (Molecular Devices, software SoftMax 6). A vehicle only control and a dose titration of CRID3 (100-0.0017 μM) were run concurrently with each experiment.
Procedure 2: […] Production in PMA-Differentiated THP-1 Cells Stimulated with Gramicidin
THP-1 cells were purchased from the American Type Culture Collection and sub-cultured according to instructions from the supplier. Prior to experiments, cells were cultured in complete RPMI 1640 (containing 10% heat inactivated FBS, penicillin (100 units/ml) and streptomycin (100 μg/ml)), and maintained in log phase prior to experimental setup. Prior to the experiment THP-1 were treated with PMA (Phorbol 12-myristate 13-acetate) (20 ng/ml) for 16-18 hours. Compounds were dissolved in dimethyl sulfoxide (DMSO) to generate a 30 mM stock. On the day of the experiment the media was removed and adherent cells were detached with trypsin for 5 minutes. Cells were then harvested, washed with complete RPMI 1640, spun down, resuspended in RPMI 1640 (containing 2% heat inactivated FBS, penicillin (100 units/ml) and streptomycin (100 μg/ml). The cells were plated in a 384-well plate at a density of 50,000 cells/well (final assay volume 50 μl). Compounds were first dissolved in assay medium to obtain a 5× top concentration of 500 μM. 10 step dilutions (1:3) were then undertaken in assay medium containing 1.67% DMSO. 5× compound solutions were added to the culture medium to achieve desired final concentration (e.g. 100, 33, 11, 3.7, 1.2, 0.41, 0.14, 0.046, 0.015, 0.0051, 0.0017 μM). Final DMSO concentration was at 0.37%. Cells were incubated with compounds for 1 hour and then stimulated with gramicidin (5 μM) (Enzo) for 2 hours. Plates were then centrifuged at 340 g for 5 min. Cell free supernatant (40 μL) was collected using a 96-channel PlateMaster (Gilson) and the production of IL-1β was evaluated by HTRF (cisbio). A vehicle only control and a dose titration of CRID3 (100-0.0017 μM) were run concurrently with each experiment. […]
`CC(C)(O)c1ccc(CS(N)(=O)=NC(=O)Nc2c3c(cc4c2CCC4)CCC3)cc1` (single isomer, unassigned) [Compound 165a] showed a pIC50 of 5.30 to 6.00.

Still in this assay, the particulars now being: Average IC50, hTHP-1 assay containing 2% fetal bovine serum; Table 10, numeric values.
Consider `CN1CCC(S(N)(=O)=NC(=O)Nc2c3c(cc4c2CCC4)CCC3)CC1` (stereo not drawn) [Compound 140], for which the negative-log IC50 (pIC50) was under 4.52.
`CN(C)S(C)(=O)=NC(=O)Nc1c2c(cc3c1CCC3)CCC2` (single isomer, unassigned) [Compound 102, N′-((1,2,3,5,6,7-hexahydro-s-indacen-4-yl)carbamoyl)-N,N-dimethylmethanesulfonimidamide] had a pIC50 of under 4.52.
Compound `NS(=O)(=NC(=O)Nc1c2c(cc3c1CCC3)CCC2)C1CCCCC1` (stereo not drawn) [Compound 148] showed a pIC50 of under 4.52.
`CC1(S(N)(=O)=NC(=O)Nc2c3c(cc4c2CCC4)CCC3)CC1` (stereo not drawn) [Compound 163] showed a pIC50 of under 4.52.
In turn, `CC(C)c1cc(F)cc(C(C)C)c1CC(=O)N=S(N)(=O)C1CCCC1` (stereo not drawn) [Compound 305] had a pIC50 of under 4.52.
In turn, `CC(CN(C)C)CS(N)(=O)=NC(=O)Nc1c2c(cc3c1CCC3)CCC2` (single isomer, unassigned) [Compound 127, 3-(dimethylamino)-N′-((1,2,3,5,6,7-hexahydro-s-indacen-4-yl)carbamoyl)-2-methylpropane-1-sulfonimidamide] gave a pIC50 of under 4.52.
Compound `NS(=O)(=NC(=O)Nc1c2c(cc3c1CCC3)CCC2)C1CCC1` (single isomer, unassigned) [Compound 146] had a pIC50 of under 4.52.

The assay is the same for the next values; noted with them: Homo sapiens, THP-1, Average IC50, hTHP-1 assay containing 2% fetal bovine serum; Table 10, class symbols.
Consider `COC(=O)CCS(=O)(=O)NC(=O)Cc1c2c(cc3c1CCC3)CCC2` [Compound 504], for which the pIC50 is 5.30 to 6.00.
Regarding `COC(=O)CCS(=O)(=O)NC(=O)Cc1c(C(C)C)cc(F)cc1C(C)C` [Compound 520, methyl 3-(N-(2-(4-fluoro-2,6-diisopropylphenyl)acetyl)sulfamoyl) propanoate], the pIC50 is 5.30 to 6.00.
Take `CN(C)Cc1ccc(CS(N)(=O)=NC(=O)Nc2c3c(cc4c2CCC4)CCC3)cc1` (stereo not drawn) [Compound 104, 1-(4-((dimethylamino)methyl)pheny1)-N′-((1,2,3,5,6,7-hexahydro-s-indacen-4-yl)carbamoyl) methane-sulfonimidamide]: the negative-log IC50 (pIC50) is 5.30 to 6.00.
`NS(=O)(=NC(=O)Nc1c2c(cc3c1CCC3)CCC2)C1Cc2ccccc2C1` (stereo not drawn) [Compound 139, N′-((1,2,3,5,6,7-hexahydro-s-indacen-4-yl)carbamoy1)-2,3-dihydro-1H-indene-2-sulfonimidamide] had a pIC50 of 4.52 to 5.30.
Consider `CC(C)c1cccc(C(C)C)c1NC(=O)NS(=O)(=O)CC(O)c1ccsc1` (stereo not drawn) [Compound 402], for which the pIC50 was 4.52 to 5.30.
For the compound `CN1CCC(CS(N)(=O)=NC(=O)Nc2c3c(cc4c2CCC4)CCC3)C1` (stereo not drawn) [Compound 112, N′-((1,2,3,5,6,7-hexahydro-s-indacen-4-yl)carbamoy1)-1-(1-methylpyrrolidin-3-yl) methane-sulfonimidamide], the pIC50 is 5.30 to 6.00.

Still in this assay, the particulars now being: Homo sapiens, THP-1, Average IC50, hTHP-1 assay containing 2% fetal bovine serum; Table 10, numeric values.
In turn, `CN(C)Cc1ccc(CS(N)(=O)=NC(=O)Nc2c3c(cc4c2CCC4)CCC3)cc1` (single isomer, unassigned) [Compound 105] had a pIC50 of under 4.52.
The compound `CC(C)c1cc(F)cc(C(C)C)c1CC(=O)NS(=O)(=O)Cc1ccc(C(=O)O)cc1` [Compound 518] showed a pIC50 of under 4.00.
`NS(=O)(=NC(=O)Nc1c2c(cc3c1CCC3)CCC2)C1CC1` (stereo not drawn) [Compound 156, N′-((1,2,3,5,6,7-hexahydro-s-indacen-4-yl)carbamoyl) cyclopropane-sulfonimidamide] had a pIC50 of under 4.52.
On the same count and under the same terms, to `CC(C)c1cc(F)cc(C(C)C)c1CC(=O)N=S(N)(=O)C1CC1` (stereo not drawn) [Compound 308] belongs under 4.52.
In turn, `CC(C)c1cc(F)cc(C(C)C)c1CC(=O)NS(=O)(=O)CCc1ccccc1` [Compound 516] showed a pIC50 of under 4.52.
The compound `CC(C)c1ncc(CS(=O)(=O)NC(=O)Cc2c(C(C)C)cc(F)cc2C(C)C)s1` [Compound 505] showed a pIC50 of under 4.01.
Regarding `COC(=O)CS(=O)(=O)NC(=O)Cc1c(C(C)C)cc(F)cc1C(C)C` [Compound 501], the pIC50 is under 4.00.
